Active and inactive are the calls of the source. Starred links: 1 amine or outer side, 2 acyl side, 3 side chain; linkers in the order of their positions; H or OH if unused. Non-standard residues stand in square brackets, D forms with d. Residues, ends and D or L forms follow the SMILES beside them. *: point of attachment. C20 diacid = O=C(O)CCCCCCCCCCCCCCCCCCC(=O)*; γGlu = O=C(O)[C@H](CCC(=O)[*:2])N[*:1]; Iva = CC[C@](C)(N)C(=O)O; PEG2 = NCCOCCOCCC(=O)O

Data set [1] can be described thus: Half life in cynomolgus monkey at 0.06 mg/kg, sc administered as single dose measured upto 30 days by LC-MS/MS method. The class given is ADME, organism-based, Macaca fascicularis. Particulars: in vivo, time < 30 day.
In data set [2] the test system is Mus musculus. Briefly: Antifibrotic activity against BLM-induced C57BL/6 mouse pulmonary fibrosis model assessed as reversal of body weight loss at 150 ug/kg, sc administered for 2 weeks starting from 7 days post BLM induction and measured after 21 days post BLM induction. The class given is functional, organism-based. Particulars: dose 150.0 µg/kg.
The subject of data set [3] is Mus musculus. Briefly: Antifibrotic activity against BLM-induced C57BL/6 mouse pulmonary fibrosis model assessed as reduction in Cthrc1 gene expression at 240 ug/kg/day, sc administered for 2 weeks starting from 7 days post BLM induction and measured after 21 days post BLM induction by ScRNA-sequencing analysis. It is filed as functional, organism-based. Particulars: dose 240.0 µg/kg/day.

Data set [4] deals with Mus musculus. Nature of the data set: Antifibrotic activity against BLM-induced C57BL/6 mouse pulmonary fibrosis model assessed as reduction in Fstl1 gene expression at 240 ug/kg/day, sc administered for 2 weeks starting from 7 days post BLM induction and measured after 21 days post BLM induction by ScRNA-sequencing analysis. The class given is functional, organism-based. Particulars: dose 240.0 µg/kg/day.

Another data set relates to TC-1. Briefly: Antifibrotic activity against BLM-induced mouse TC-1 cells assessed as reduction in MMP-12 expression at 10 uM after 24 hrs by Western blotting analysis. It is filed as functional, cell-based. (In western blotting, separated proteins are transferred to a membrane and probed.)
In data set [5] the test system is Mus musculus. Nature of the data set: Antifibrotic activity against BLM-induced C57BL/6 mouse pulmonary fibrosis model at 240 ug/kg/day, sc administered for 2 weeks starting from 7 days post BLM induction and measured after 21 days post BLM induction in presence of Clo-Lip. It is filed as functional, organism-based. Particulars: dose 240.0 µg/kg/day.
The subject of data set [6] is Mus musculus. Briefly: Antifibrotic activity against BLM-induced C57BL/6 mouse pulmonary fibrosis model assessed as reduction in MMP-12 expression at 240 ug/kg/day, sc administered for 2 weeks starting from 7 days post BLM induction and measured after 21 days post BLM induction in presence of GM6001. The class given is functional, organism-based. Particulars: dose 240.0 µg/kg/day.

Data set [7] concerns Mus musculus. Briefly: Antifibrotic activity against BLM-induced C57BL/6 mouse pulmonary fibrosis model assessed as reduction in alpha-SMA expression at 240 ug/kg/day, sc administered for 2 weeks starting from 7 days post BLM induction and measured after 21 days post BLM induction in presence of Clo-Lip. Particulars: dose 240.0 µg/kg/day. The class given is functional, organism-based.

For orientation: half-life means the time needed for the level to fall by half in the phase considered. Consider `CC[C@](C)(NC(=O)[C@@H](NC(=O)CCOCCOCCNC(=O)CCOCCOCCNC(=O)CC[C@H](NC(=O)CCCCCCCCCCCCCCCCCCC(=O)O)C(=O)O)C(C)C)C(=O)NCC(=O)N[C@@H](CO)C(=O)N1CCC[C@H]1C(=O)N[C@@H](CO)C(=O)N[C@@H](C)C(=O)N[C@@H](CCC(N)=O)C(=O)N[C@@H](CCC(=O)O)C(=O)N[C@@H](CCC(=O)O)C(=O)N[C@@H](C)C(=O)N[C@@H](CO)C(=O)N1CCC[C@H]1C(=O)N[C@@H](C)C(N)=O` ({C20 diacid-γGlu-PEG2-PEG2}-V[Iva]GSPSAQEEASPA-NH2), for which, in data set [1], the half-life is 10.7 days. The result in the data set with Mus musculus [2], with Mus musculus [3] and in the data set with Mus musculus [4] was Active. Besides, the result in the data set on TC-1, in the data set with Mus musculus [5], in the data set on Mus musculus [6] and in the data set on Mus musculus [7] was inactive.

Values taken from ChEMBL document CHEMBL5543137, “Design and Synthesis of Novel Ultralong-Acting Peptides as EDP-EBP Interaction Inhibitors for Pulmonary Fibrosis Treatment” (J Med Chem, 2024).
